# In patent US4868117A, “BBM-1675, a new antitumor antibiotic complex” (Bristol-Myers Company, priority 1985, dated 1989):
# Values joined by “and” are separate entries in the source; they are usually repeats but may differ in a detail not shown here. Equal entries are not always repeated. Where two headings read alike, the source gives them in different places.
# Columns and labels:
# L-1210 leukemia [1] = test: Intravenously implanted L-1210 leukemia, i.v. treatment; conditions: days 1, 4 and 7, lines in dose order as in E71 (Adriamycin starts with 16)
# Description: (§1) Lymphocytic leukemia P-388, lymphoid leukemia L-1210, melanotic melanoma B16 and Lewis lung carcinoma were implanted intraperitoneally into male BDF1 mice at an inoculum size of 10^6, 10^5, 5×10^5 and 10^6 cells per mouse, respectively. Graded doses of test compounds were administered to the mice intraperitoneally 24 hours after the tumor inoculation.
# (§2) Death or survival of the treated and non-treated mice was recorded daily, and the median survival time (MST) was calculated for each of the test (T) and control (C) groups. […] Second experiments were carried out by intravenous administration of BBM-1675 components against P-388 and L-1210 leukemias, which were inoculated intravenously at 5×10^5 and 10^4 cells per mouse, respectively.
# P-388 leukemia [2] = test: Intravenously implanted P-388 leukemia, i.v. treatment; conditions: days 1, 4 and 7, lines in dose order as in E66 (Adriamycin starts with 30)
# Description: as §1, §2
# L-1210 leukemia [3] = conditions: i.p., qd 1→9
# Description: as §1
# (§3) Death or survival of the treated and non-treated mice was recorded daily, and the median survival time (MST) was calculated for each of the test (T) and control (C) groups.
# male ddY mice = test: Toxicity (LD50) in male ddY mice; conditions: multiple dose (qd 1→9), i.p.
# P-388 leukemia [4] = conditions: for Therapeutic index, LD50/MED: MED = minimum effective dose
# Description: as §1, §2
# [5] = i.p., qd 1→11, lines in dose order as in E53
# [6] = i.p., qd 1→9, lines in dose order as in E48
# Description for B16 melanoma: as §1, §3
# Description for Lewis lung carcinoma: as §1, §3
structure (smiles),measurement,setting,value
"COc1cccc2c1C(=O)c1c(O)c3c(c(O)c1C2=O)C[C@@](O)(C(=O)CO)C[C@@H]3O[C@H]1C[C@H](N)[C@H](O)[C@H](C)O1 [Adriamycin, adriamycin]",Survivors on day 5,L-1210 leukemia [1],2/6 and 6/6
same,Survivors on day 45,L-1210 leukemia [1],0/6
same,Survivors on day 5,P-388 leukemia [2],0/6 and 6/6
same,Survivors on day 45,P-388 leukemia [2],0/6
"CO[C@@H]1[C@H](O)C[C@@H](O[C@@H]2C[C@H](Oc3cc4cc5c(c(O)c4c(O)c3C)C(=O)[C@@H](O[C@H]3C[C@@H](O[C@H]4C[C@@H](O[C@H]6C[C@](C)(O)[C@@H](OC(C)=O)[C@H](C)O6)[C@H](O)[C@@H](C)O4)[C@H](O)[C@@H](C)O3)[C@H]([C@H](OC)C(=O)[C@@H](O)[C@@H](C)O)C5)O[C@H](C)[C@@H]2OC(C)=O)O[C@@H]1C [Chromomycin A3, chromomycin A3]",MST,L-1210 leukemia [3]; lines in dose order as in E43,8.5 days and 11.0 days and 10.0 days
same,Survivors on day 5,L-1210 leukemia [3]; lines in dose order as in E43,6/6
same,Survivors on day 45,L-1210 leukemia [3]; lines in dose order as in E43,0/6
same,T/C,"L-1210 leukemia [3]; ≥[…] significant, mg/kg/day in line order: A1 0.003,0.001,0.0003,0.0001, A2 0.03,0.01,0.003,0.001,0.0003, chromomycin A3 0.3,0.1,0.03,0.01,0.003",89%
same,"Therapeutic index, LD50/MED","Lewis lung carcinoma; LL, MED = minimum effective dose",23
same,Survivors on day 5,Lewis lung carcinoma; [5],6/6 and 5/5
same,Survivors on day 45,Lewis lung carcinoma; [5],1/6 and 0/6
same,MST,"Lewis lung carcinoma; mouse, in vivo, ip",17.0
same,Survivors on day 45,"Lewis lung carcinoma; mouse, in vivo, ip",0/5
same,"Therapeutic index, LD50/MED","B16 melanoma; B16, MED = minimum effective dose",23
same,MST,B16 melanoma; [6],23.0 days and 21.0 days
same,Survivors on day 5,B16 melanoma; [6],6/6
same,Survivors on day 45,B16 melanoma; [6],0/6
same,MST,"B16 melanoma; mouse, in vivo, ip",18.0
same,LD50,male ddY mice,0.23 mg/kg/day
same,"Therapeutic index, LD50/MED","P-388 leukemia [4]; P-388, qd 1→9",8
same,"Therapeutic index, LD50/MED","P-388 leukemia [4]; P-388, single",8
same,Survivors on day 45,"P-388 leukemia [4]; mouse, in vivo, ip",0/5 and 1/5
